According to publication PMC10290954 (Nature Metabolism, 2023):
One block for each compound: values may come before it.

Key:
mouse GIP receptor [1] = biological target: T1, mouse GIP receptor (Mus musculus, UniProt Q0P543); experiment: cAMP generation (Glosensor), mouse GIPR; type: cell-based; set-up: expressed in transfected cells; host or cells: low-receptor-density clonal cell lines; details: for HillSlope / Span (four parameter fit) / Top (four parameter fit) / Bottom (four parameter fit): mGIP-R HEK-293 cells, cAMP formation; for HillSlope: four parameter fit - normalized; for Span (four parameter fit) / Top (four parameter fit) / Bottom (four parameter fit): max signal = 100 nM human GIP(1-42)NH2, normalized
T1 sequence (Q0P543 19-460): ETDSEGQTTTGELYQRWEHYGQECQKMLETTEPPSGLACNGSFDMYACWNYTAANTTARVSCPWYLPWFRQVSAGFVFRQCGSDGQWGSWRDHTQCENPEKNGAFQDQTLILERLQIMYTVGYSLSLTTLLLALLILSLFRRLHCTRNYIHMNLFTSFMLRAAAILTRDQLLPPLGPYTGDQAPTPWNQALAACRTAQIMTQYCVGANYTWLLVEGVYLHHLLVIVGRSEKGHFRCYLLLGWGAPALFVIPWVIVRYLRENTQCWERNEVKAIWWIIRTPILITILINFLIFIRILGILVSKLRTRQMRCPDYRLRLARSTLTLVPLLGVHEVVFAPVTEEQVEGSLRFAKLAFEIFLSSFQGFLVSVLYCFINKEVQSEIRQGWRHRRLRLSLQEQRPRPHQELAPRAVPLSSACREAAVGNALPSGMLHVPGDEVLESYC
Protocol: (§1) Methods for these assays have been previously described. In brief, for GTPγs binding, the potency of ligands to stimulate receptor-dependent elevation of the GTPγS-bound Gαs subunit was determined using membrane preparations from low-receptor-density receptor clonal cell lines. Reactions were incubated for 30 min at room temperature in white, clear-bottom microtiter plates, and per cent of the maximal response was calculated using control wells as a reference. Relative EC50 values were derived by nonlinear regression analysis using the per cent response versus the concentration of ligand and fitted to a four-parameter logistic equation using GraphPad Prism 7 software. For cAMP assays, kinetic cAMP assays were performed in low-density receptor cell clones transfected with the Glosensor 22 F vector (Promega). Cells were equilibrated for 5–20 min and then 20 μl of 10× ligand was added and a luminescence time course was collected. Ligand (10×) was titrated by manual serial dilution in DMSO followed by step-down into assay buffer.

[2] = biological target: T2, mouse GIP receptor (mGIPR), transiently expressed in HEK293T cells for BRET (mouse) (UniProt Q0P543)
T2 sequence: T1 sequence (Q0P543 19-460)

[3] = biological target: T3, mouse GIP receptor (mGIPR), cloned, in membranes of HEK cells (mouse) (UniProt Q0P543)
T3 sequence: T1 sequence (Q0P543 19-460)

mouse GIP receptor [4] = biological target: T1, mouse GIP receptor; experiment: [35S]GTPγS binding, mouse GIPR; type: biochemical; set-up: expressed in transfected cells; host or cells: low-receptor-density clonal cell lines; details: mGIPR GTPgS
Protocol: as §1, with “collected.” for “collected. Ligand (10×) was titrated by manual serial dilution in DMSO followed by step-down into assay buffer.”

human islets = experiment: Human islet perifusion, insulin secretion with Ex9 or hGIP(3-30) (Extended Data Fig. 2); type: cell-based; details: two donor sets, 30 nM tirzepatide, antagonist 1 μM
Protocol: Human islets were obtained from both the Alberta Diabetes Institute and the Integrated Islet Distribution Program. All islets were obtained from consenting donors. Details for the general perifusion protocol have been previously described[21] and are similar to the mouse perifusion protocol. […] Each set of human islets consisted of n = 3 for each condition. These were averaged to generate a single data point (Fig. 2c). Insulin values were measured with a Lumit insulin immunoassay (Promega) using an EnVision plate reader (PerkinElmer). For the glucagon secretion experiments (Fig. 3), the average glucagon values were calculated during control (minutes 35–45) and stimulated (minutes 55–65) conditions. All peptides were used at 30 nM concentrations based on previous work[16]. Amino acids were used at concentrations of 3 mM based on previous work[11]. Glucagon was measured with a Lumit Glucagon Immunoassay Kit (cat. no. CS3037A02; Promega) using an EnVision plate reader (PerkinElmer). Somatostatin was measured with an ELISA assay (cat. no. FEK-060-14; Phoenix Pharmaceuticals). All data are expressed as the measured concentration relative to both flow rate and islet number (insulin, ng ml^–1 × (1/200 µl ml^–1) × (1/75 islets); glucagon, pM × (1/200 µl ml^–1) × (1/75 islets); somatostatin, pg ml^–1 × (1/200 µl ml^–1) × (1/75 islets))[49]. Human pancreatic islets and pancreas tissue were isolated from deceased donors under ethical approval from the Human Research Ethics Board of the University of Alberta (Pro00013094, Pro00001754) and obtained from the NIDDK-funded Integrated Islet Distribution Program (IIDP) (RRID: SCR _014387). All donors’ families gave informed consent for the use of pancreatic tissue in research and were not financially compensated.
The integrated area under the curve (iAUC) was calculated for both glucose and tirzepatide stimulated insulin secretion using the value of the first time point as the baseline. All values are mean + /- SEM, n = 3/group. A one-way ANOVA with Tukey’s posthoc test was used. Source data

Compound: CC[C@H](C)[C@H](NC(=O)[C@H](CO)NC(=O)[C@H](Cc1ccc(O)cc1)NC(=O)[C@H](CC(=O)O)NC(=O)[C@H](CO)NC(=O)[C@@H](NC(=O)[C@H](Cc1ccccc1)NC(=O)[C@@H](NC(=O)CNC(=O)[C@H](CCC(=O)O)NC(=O)[C@H](C)NC(=O)[C@@H](N)Cc1ccc(O)cc1)[C@@H](C)O)[C@@H](C)CC)C(=O)N[C@@H](C)C(=O)N[C@@H](CCSC)C(=O)N[C@@H](CC(=O)O)C(=O)N[C@@H](CCCCN)C(=O)N[C@H](C(=O)N[C@@H](CCCNC(=N)N)C(=O)N[C@@H](CCC(N)=O)C(=O)N[C@@H](CCC(N)=O)C(=O)N[C@@H](CC(=O)O)C(=O)N[C@@H](Cc1ccccc1)C(=O)N[C@H](C(=O)N[C@@H](CC(N)=O)C(=O)N[C@@H](Cc1c[nH]c2ccccc12)C(=O)N[C@@H](CC(C)C)C(=O)N[C@@H](CC(C)C)C(=O)N[C@@H](C)C(=O)N[C@@H](CCC(N)=O)C(=O)N[C@@H](CCCNC(=N)N)C(=O)NCC(=O)N[C@@H](CCCCN)C(=O)N[C@@H](CCCCN)C(=O)N[C@@H](CO)C(=O)N[C@@H](CC(=O)O)C(=O)N[C@@H](Cc1c[nH]c2ccccc12)C(=O)N[C@@H](CCCCN)C(=O)N[C@@H](Cc1c[nH]cn1)C(=O)N[C@@H](CC(N)=O)C(=O)N[C@H](C(=O)N[C@H](C(=O)N[C@@H](CCC(N)=O)C(N)=O)[C@@H](C)O)[C@@H](C)CC)C(C)C)[C@@H](C)CC [mouse GIP(1-42)NH2]
- Emax (mouse GIP receptor [1]; HEK293, read-out: Arthmetic Mean Emax): 103%
- HillSlope (mouse GIP receptor [1]; run 2022-10-04, replicate 1): 0.8118
- HillSlope (mouse GIP receptor [1]; run 2022-10-04, replicate 2): 0.9861
- HillSlope (mouse GIP receptor [1]; run 2022-10-06, replicate 1): 0.7723
- HillSlope (mouse GIP receptor [1]; run 2022-10-06, replicate 2): 0.9288
- HillSlope (mouse GIP receptor [1]; run 2022-10-12): 1.095
- Span (four parameter fit) (mouse GIP receptor [1]; run 2022-10-04, replicate 1): 112.9 Percent Max-Min
- Top (four parameter fit) (mouse GIP receptor [1]; run 2022-10-04, replicate 1): 112.9 Percent Max-Min
- Span (four parameter fit) (mouse GIP receptor [1]; run 2022-10-04, replicate 2): 111.3 Percent Max-Min
- Top (four parameter fit) (mouse GIP receptor [1]; run 2022-10-04, replicate 2): 106.4 Percent Max-Min
- Bottom (four parameter fit) (mouse GIP receptor [1]; run 2022-10-06, replicate 1): -5.431 Percent Max-Min
- Span (four parameter fit) (mouse GIP receptor [1]; run 2022-10-06, replicate 1): 105.7 Percent Max-Min
- Top (four parameter fit) (mouse GIP receptor [1]; run 2022-10-06, replicate 1): 100.3 Percent Max-Min
- Bottom (four parameter fit) (mouse GIP receptor [1]; run 2022-10-06, replicate 2): -2.463 Percent Max-Min
- Span (four parameter fit) (mouse GIP receptor [1]; run 2022-10-06, replicate 2): 102 Percent Max-Min
- Top (four parameter fit) (mouse GIP receptor [1]; run 2022-10-06, replicate 2): 99.51 Percent Max-Min
- Bottom (four parameter fit) (mouse GIP receptor [1]; run 2022-10-12): -1.282 Percent Max-Min
- Span (four parameter fit) (mouse GIP receptor [1]; run 2022-10-12): 97.15 Percent Max-Min
- Top (four parameter fit) (mouse GIP receptor [1]; run 2022-10-12): 95.87 Percent Max-Min

- Gs recruitment (ligand-induced BRET), EC50 [2]: 153 nM
- Gs recruitment (ligand-induced BRET), Emax [2]: 101%
- [35S]GTPγS binding (G-protein activation), EC50 [3]: 0.735 nM
- [35S]GTPγS binding (G-protein activation), Emax [3]: 96.7%
- cAMP generation, EC50 [3]: 0.046 nM
Compound: human glucose-dependent insulinotropic polypeptide (hGIP) (from UniProt P09681 52-93)

Compound: CC[C@H](C)[C@H](NC(=O)[C@H](CO)NC(=O)[C@H](Cc1ccc(O)cc1)NC(=O)[C@H](CC(=O)O)NC(=O)[C@H](CO)NC(=O)[C@@H](NC(=O)[C@H](Cc1ccccc1)NC(=O)[C@@H](NC(=O)CNC(=O)[C@H](CCC(=O)O)NC(=O)[C@H](C)NC(=O)[C@@H](N)Cc1ccc(O)cc1)[C@@H](C)O)[C@@H](C)CC)C(=O)N[C@@H](C)C(=O)N[C@@H](CCSC)C(=O)N[C@@H](CC(=O)O)C(=O)N[C@@H](CCCCN)C(=O)N[C@H](C(=O)N[C@@H](Cc1c[nH]cn1)C(=O)N[C@@H](CCC(N)=O)C(=O)N[C@@H](CCC(N)=O)C(=O)N[C@@H](CC(=O)O)C(=O)N[C@@H](Cc1ccccc1)C(=O)N[C@H](C(=O)N[C@@H](CC(N)=O)C(=O)N[C@@H](Cc1c[nH]c2ccccc12)C(=O)N[C@@H](CC(C)C)C(=O)N[C@@H](CC(C)C)C(=O)N[C@@H](C)C(=O)N[C@@H](CCC(N)=O)C(=O)N[C@@H](CCCCN)C(=O)NCC(=O)N[C@@H](CCCCN)C(=O)N[C@@H](CCCCN)C(=O)N[C@@H](CC(N)=O)C(=O)N[C@@H](CC(=O)O)C(=O)N[C@@H](Cc1c[nH]c2ccccc12)C(=O)N[C@@H](CCCCN)C(=O)N[C@@H](Cc1c[nH]cn1)C(=O)N[C@@H](CC(N)=O)C(=O)N[C@H](C(=O)N[C@H](C(=O)N[C@@H](CCC(N)=O)C(N)=O)[C@@H](C)O)[C@@H](C)CC)C(C)C)[C@@H](C)CC [hGIP]
- Emax (mouse GIP receptor [4]; run of 2019-03-15): 91.9%
- Emax (mouse GIP receptor [4]; run of 2019-04-02): 91.5%
- Emax (mouse GIP receptor [4]; run of 2019-06-28): 93.8%
- Emax (mouse GIP receptor [4]; run of 2022-02-17): 93.1%

Compound: hGIP(3-30): a different GIPR antagonist that has been previously characterized (ref 27) (EGTFISDYSIAMDKIHQQDFVNWLLAQK; Gastric inhibitory polypeptide; UniProt P09681 54-81, looked up, fragment)
- Effect on tirzepatide-stimulated insulin secretion (human islets): A similar outcome
